Reference: PubChem BioAssay (NCI)
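All cell lines were grown in 96-well plates and treated with compound for 48 hours. TGI marks complete inhibition of growth.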

Assays:
Experiment in all cases: NCI-60 cell line screen, 48 h
SR leukemia = tested on: SR leukemia
IGROV1 ovarian = tested on: IGROV1 ovarian
HT29 colon = tested on: HT29 colon
MOLT-4 leukemia = tested on: MOLT-4 leukemia
UACC-257 melanoma = tested on: UACC-257 melanoma
BT-549 breast = tested on: BT-549 breast
OVCAR-3 ovarian = tested on: OVCAR-3 ovarian
HOP-62 NSCLC = tested on: HOP-62 NSCLC
OVCAR-4 ovarian = tested on: OVCAR-4 ovarian
SK-MEL-2 melanoma = tested on: SK-MEL-2 melanoma
SF-268 CNS = tested on: SF-268 CNS
HCT-116 colon = tested on: HCT-116 colon
EKVX NSCLC = tested on: EKVX NSCLC
NCI-H522 lung = tested on: NCI-H522 lung
MDA-MB-435 = tested on: MDA-MB-435
A498 renal = tested on: A498 renal
HCT-15 colon = tested on: HCT-15 colon
NCI/ADR-RES ovarian = tested on: NCI/ADR-RES ovarian
ACHN renal = tested on: ACHN renal
UO-31 renal = tested on: UO-31 renal
M14 melanoma = tested on: M14 melanoma
TK-10 renal = tested on: TK-10 renal
SK-MEL-28 melanoma = tested on: SK-MEL-28 melanoma
SK-MEL-5 melanoma = tested on: SK-MEL-5 melanoma
CAKI-1 renal = tested on: CAKI-1 renal
SNB-19 CNS = tested on: SNB-19 CNS
MDA-MB-231 breast = tested on: MDA-MB-231 breast
COLO 205 colon = tested on: COLO 205 colon
KM12 colon = tested on: KM12 colon
SW-620 colon = tested on: SW-620 colon
UACC-62 melanoma = tested on: UACC-62 melanoma
T-47D breast = tested on: T-47D breast
MALME-3M melanoma = tested on: MALME-3M melanoma
SF-539 CNS = tested on: SF-539 CNS
RPMI-8226 leukemia = tested on: RPMI-8226 leukemia
SK-OV-3 ovarian = tested on: SK-OV-3 ovarian
LOX IMVI melanoma = tested on: LOX IMVI melanoma
NCI-H226 lung = tested on: NCI-H226 lung
MCF7 breast = tested on: MCF7 breast
OVCAR-8 ovarian = tested on: OVCAR-8 ovarian
SN12C renal = tested on: SN12C renal
SF-295 CNS = tested on: SF-295 CNS
PC-3 prostate = tested on: PC-3 prostate
786-0 renal = tested on: 786-0 renal
NCI-H23 lung = tested on: NCI-H23 lung
SNB-75 CNS = tested on: SNB-75 CNS
A549 NSCLC = tested on: A549 NSCLC
OVCAR-5 ovarian = tested on: OVCAR-5 ovarian
DU-145 prostate = tested on: DU-145 prostate
U251 CNS = tested on: U251 CNS
RXF 393 renal = tested on: RXF 393 renal
HOP-92 NSCLC = tested on: HOP-92 NSCLC
HL-60(TB) leukemia = tested on: HL-60(TB) leukemia
MDA-N = tested on: MDA-N
K-562 leukemia = tested on: K-562 leukemia
CCRF-CEM leukemia = tested on: CCRF-CEM leukemia
NCI-H460 lung = tested on: NCI-H460 lung
HCC-2998 colon = tested on: HCC-2998 colon

Measured: TGI

CC(C)(C)c1cc(-c2ccc(-c3cc(C(C)(C)C)c(O)c(C(C)(C)C)c3)cc2)cc(C(C)(C)C)c1O
not listed: CCRF-CEM leukemia | NCI-H460 lung | HCC-2998 colon
> 100 µM: all other assays above

O=S(=O)(O)CCS
not listed: BT-549 breast | TK-10 renal | RPMI-8226 leukemia | HL-60(TB) leukemia
> 100 µM: all other assays above
